Earlier results in patent US9863006B2, “Selective lysis of cells by ionic surfactants” (Biocartis NV, priority 2011, dated 2018).

Conditions: room temperature

## CCCCCCCCCCCCOS(=O)(=O)[O-].[Na+] [sodium dodecyl sulfate]
  time to cross the membrane: hours or days
